This note sets out measurements from paper PMC10687288, “Chalcones: The flavonoid derivatives synthesis, characterization, their antioxidant and in vitro/in vivo antidiabetic potentials” (Heliyon, 2023).

The test has as its target α-glucosidase. In words: p-nitrophenyl-α-D-glucopyranoside hydrolysis assay, absorbance […] nm. Format: biochemical.
Consider `O=C(/C=C/c1ccccc1Cl)c1ccc(Br)cc1` [JA1, (E)-1-(4-bromophenyl)-3-(2-chlorophenyl) prop-2-ene-1one], for which the “Glucosidase IC50” value was 85.11 ± 1.29 µg/mL.
With `O=C(/C=C/c1cccc(Cl)c1)c1ccc(Br)cc1` [JA2, (E)-1-(4-bromophenyl)-3-(3-chlorophenyl) prop-2-ene-1one] the figure was 97.24 ± 1.48 µg/mL; with `O=C(/C=C/c1ccc(Cl)cc1)c1ccc(Br)cc1` [JA3, (E)-1-(4-bromophenyl)-3-(4-chlorophenyl) prop-2-ene-1one], 63.04 ± 1.17 µg/mL.
